These results are taken from patent US6458781B1, “Substituted diarylalkyl amides as calcium channel antagonists” (priority 1998, dated 2002).

The target of test [1] is T1, N-type calcium channels in IMR-32 cells (Homo sapiens, UniProt Q00975).
T1 construct: host or cells: IMR-32 cells differentiated with dibutyryl cAMP and bromodeoxyuridine
Briefly: N-type Ca2+ channel blocking potency in IMR-32 cells using Indo-1. Format: cell-based. The note with it: for IC50: IMR-32 cells. In outline:
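Differentiated IMR-32 cells loaded with Indo-1 AM were preincubated with compound and 5 μM nitrendipine (L-type block) for 10 min at 30° C in HEPES/Tris pH 7.4 HBSS with 0.5% BSA. Cells were depolarized with KCl/CaCl2, and the 400/490 nm emission ratio rise over basal was measured. IC50 came from a four-parameter logistic fit.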

The test system of test [2] is sound-induced tonic convulsions in DBA/2 mice. Briefly: Audiogenic seizure model in DBA/2 mice. Format: in vivo. To be noted: Mus musculus, protected/tested, read-out: Number of Mice Protected From Tonic Convulsions (converted); for responders at 30 mg/kg: 30 mg/Kg IV; for responders at 3 mg/kg: 3 mg/Kg IV; for responders at 10 mg/kg: 10 mg/Kg IV. On the procedure: Audiogenic Seizure Model in DBA/2 Mice
A compound of the present invention was dissolved in water using 10% (weight/volume) Emulphor (GAF Corp., Wayne, N.J.) surfactant. Substances were administered by intravenous injection into the retro-orbital venous sinus of male mice (3-4 weeks old, Jackson Laboratories, Bar Harbour, Me.). All testing was preformed 15 minutes or 45 minutes after drug injection. Immediately before anticonvulsant testing, mice were placed upon a wire mesh, 4 inches square suspended from a steel rod. The square was slowly inverted through 180 degrees and mice observed for 30 seconds. Any mouse falling from the wire mesh was scored as ataxic.
Mice were placed into an enclosed acrylic plastic chamber (21 cm height, approximately 30 cm diameter) with a high-frequency speaker (4 cm diameter) in the center of the top lid. An audio signal generator (Protek model B-810) was used to produce a continuous sinusoidal tone that Was swept linearly in frequency between 8 kHz and 16 kHz once each 10 msec. The average sound pressure level (SPL) during stimulation was approximately 100 dB at the floor of the chamber. Mice were placed within the chamber and allowed to acclimatize for 1 minute. DBA/2 mice in the vehicle-treated group responded to the sound stimulus (applied until tonic extension occurred, or for a maximum of 60 sec) with a characteristic seizure sequence consisting of wild running followed by clonic seizures, and later by tonic extension, and finally by respiratory arrest and death in 80% or more of the mice. In vehicle-treated mice, the entire sequence of seizures to respiratory arrest lasts approximately 15-20 seconds.
The incidence of all the seizure phases in the drug-treated and vehicle-treated mice was recorded, and the occurrence of tonic seizures were used for calculating anticonvulsant ED50 values by probit analysis. Mice were used only once for testing at each time and dose point.

Where [3] appears, read: 5 μM nitrendipine present, read-out: IMR32 IC50.
Where [4] appears, read: estimated from two data points, read-out: IMR32 IC50 (estimated IC50 values based on two data points).

Structures can show the parent of a compound that is named as a salt. Where two headings read alike, the source gives them in different places.

T1 sequence (Q00975 whole entry): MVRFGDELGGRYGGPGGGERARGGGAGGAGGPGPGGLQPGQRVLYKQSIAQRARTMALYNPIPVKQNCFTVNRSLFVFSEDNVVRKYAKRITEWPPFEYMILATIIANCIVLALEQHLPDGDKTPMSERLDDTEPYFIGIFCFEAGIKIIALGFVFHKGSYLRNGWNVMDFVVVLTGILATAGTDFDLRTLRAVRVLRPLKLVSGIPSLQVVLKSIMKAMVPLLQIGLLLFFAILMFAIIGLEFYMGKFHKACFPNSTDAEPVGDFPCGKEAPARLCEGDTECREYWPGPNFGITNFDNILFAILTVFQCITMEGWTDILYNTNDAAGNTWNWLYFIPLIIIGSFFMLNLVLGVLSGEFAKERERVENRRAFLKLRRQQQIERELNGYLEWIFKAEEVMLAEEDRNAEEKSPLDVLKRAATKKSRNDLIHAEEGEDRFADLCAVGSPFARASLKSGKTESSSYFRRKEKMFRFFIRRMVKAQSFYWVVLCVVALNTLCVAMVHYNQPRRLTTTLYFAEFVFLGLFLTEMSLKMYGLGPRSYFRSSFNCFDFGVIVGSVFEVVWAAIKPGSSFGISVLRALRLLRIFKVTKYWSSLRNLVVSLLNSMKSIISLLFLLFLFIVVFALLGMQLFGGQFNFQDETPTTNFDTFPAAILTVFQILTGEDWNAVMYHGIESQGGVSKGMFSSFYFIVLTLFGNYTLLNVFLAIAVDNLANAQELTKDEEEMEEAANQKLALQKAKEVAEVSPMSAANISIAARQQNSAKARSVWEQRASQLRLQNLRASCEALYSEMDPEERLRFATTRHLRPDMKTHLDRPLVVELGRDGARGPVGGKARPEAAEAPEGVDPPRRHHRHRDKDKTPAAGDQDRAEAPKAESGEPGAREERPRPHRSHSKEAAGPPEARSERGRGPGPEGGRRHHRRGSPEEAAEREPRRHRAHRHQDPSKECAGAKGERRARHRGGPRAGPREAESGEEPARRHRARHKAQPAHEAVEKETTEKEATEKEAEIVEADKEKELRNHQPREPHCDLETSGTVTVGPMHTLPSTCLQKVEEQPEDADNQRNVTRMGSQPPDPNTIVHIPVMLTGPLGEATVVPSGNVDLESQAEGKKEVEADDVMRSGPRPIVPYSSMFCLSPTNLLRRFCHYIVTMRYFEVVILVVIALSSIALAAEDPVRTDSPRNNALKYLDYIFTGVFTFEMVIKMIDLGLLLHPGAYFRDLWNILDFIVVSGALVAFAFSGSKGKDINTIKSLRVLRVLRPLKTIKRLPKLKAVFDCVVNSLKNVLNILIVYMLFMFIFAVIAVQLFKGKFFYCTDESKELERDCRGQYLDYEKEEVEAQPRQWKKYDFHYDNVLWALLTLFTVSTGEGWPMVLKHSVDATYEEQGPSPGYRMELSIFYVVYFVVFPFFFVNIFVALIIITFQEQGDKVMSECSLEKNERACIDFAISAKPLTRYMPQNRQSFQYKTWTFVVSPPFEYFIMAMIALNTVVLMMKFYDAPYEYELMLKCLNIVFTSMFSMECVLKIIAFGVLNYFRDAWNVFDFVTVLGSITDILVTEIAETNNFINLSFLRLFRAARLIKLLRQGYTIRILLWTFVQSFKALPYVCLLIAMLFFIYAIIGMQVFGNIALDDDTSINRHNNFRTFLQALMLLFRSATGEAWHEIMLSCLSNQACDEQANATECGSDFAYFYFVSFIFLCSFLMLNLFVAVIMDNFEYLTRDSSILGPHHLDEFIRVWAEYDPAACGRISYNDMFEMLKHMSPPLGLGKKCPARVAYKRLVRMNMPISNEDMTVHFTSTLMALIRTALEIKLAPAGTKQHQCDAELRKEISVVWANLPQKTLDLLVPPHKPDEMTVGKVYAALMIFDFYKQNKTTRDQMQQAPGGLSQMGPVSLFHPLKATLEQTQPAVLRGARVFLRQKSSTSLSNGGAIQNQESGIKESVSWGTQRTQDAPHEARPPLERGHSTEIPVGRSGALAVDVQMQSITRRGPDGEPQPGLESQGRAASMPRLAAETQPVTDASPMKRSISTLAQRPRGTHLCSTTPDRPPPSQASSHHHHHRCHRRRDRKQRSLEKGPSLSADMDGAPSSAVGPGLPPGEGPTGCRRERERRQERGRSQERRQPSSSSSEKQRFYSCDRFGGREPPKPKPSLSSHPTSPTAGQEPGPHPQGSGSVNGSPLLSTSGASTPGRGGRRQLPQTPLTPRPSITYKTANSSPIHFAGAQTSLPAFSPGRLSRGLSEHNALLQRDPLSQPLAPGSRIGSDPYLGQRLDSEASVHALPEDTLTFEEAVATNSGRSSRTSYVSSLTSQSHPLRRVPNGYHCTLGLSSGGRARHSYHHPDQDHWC
T1 sequence (P54289 25-956 partner limits assumed): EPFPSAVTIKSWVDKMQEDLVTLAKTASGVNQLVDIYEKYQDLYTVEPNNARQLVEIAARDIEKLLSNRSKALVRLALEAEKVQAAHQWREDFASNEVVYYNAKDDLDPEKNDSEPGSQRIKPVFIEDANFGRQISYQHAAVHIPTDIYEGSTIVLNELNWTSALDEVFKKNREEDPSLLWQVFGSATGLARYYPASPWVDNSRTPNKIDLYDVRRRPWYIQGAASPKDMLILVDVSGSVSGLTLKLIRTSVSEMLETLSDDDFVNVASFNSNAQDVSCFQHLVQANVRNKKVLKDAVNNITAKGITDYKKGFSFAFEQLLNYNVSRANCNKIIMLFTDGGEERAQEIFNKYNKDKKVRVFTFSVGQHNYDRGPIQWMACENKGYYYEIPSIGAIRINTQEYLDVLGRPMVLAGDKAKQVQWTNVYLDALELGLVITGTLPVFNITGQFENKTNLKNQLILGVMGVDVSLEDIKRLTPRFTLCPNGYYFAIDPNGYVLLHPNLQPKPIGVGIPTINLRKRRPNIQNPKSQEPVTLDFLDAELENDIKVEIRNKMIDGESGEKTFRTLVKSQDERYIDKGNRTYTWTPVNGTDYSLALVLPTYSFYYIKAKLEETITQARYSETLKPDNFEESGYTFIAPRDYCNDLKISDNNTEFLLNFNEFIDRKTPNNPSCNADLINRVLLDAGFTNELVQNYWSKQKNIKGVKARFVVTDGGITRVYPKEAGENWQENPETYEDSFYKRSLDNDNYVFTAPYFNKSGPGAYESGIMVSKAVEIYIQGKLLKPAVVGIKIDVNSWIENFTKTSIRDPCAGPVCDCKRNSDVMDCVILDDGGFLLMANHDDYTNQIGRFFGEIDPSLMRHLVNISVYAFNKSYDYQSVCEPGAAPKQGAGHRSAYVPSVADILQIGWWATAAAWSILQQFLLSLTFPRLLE
T1 sequence (P54289 957-1103 partner limits assumed): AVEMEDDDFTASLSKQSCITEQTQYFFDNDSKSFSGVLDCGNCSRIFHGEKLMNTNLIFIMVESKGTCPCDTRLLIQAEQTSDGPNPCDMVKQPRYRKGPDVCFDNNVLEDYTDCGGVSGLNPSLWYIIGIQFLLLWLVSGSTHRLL
T1 sequence (Q02641 whole entry partner): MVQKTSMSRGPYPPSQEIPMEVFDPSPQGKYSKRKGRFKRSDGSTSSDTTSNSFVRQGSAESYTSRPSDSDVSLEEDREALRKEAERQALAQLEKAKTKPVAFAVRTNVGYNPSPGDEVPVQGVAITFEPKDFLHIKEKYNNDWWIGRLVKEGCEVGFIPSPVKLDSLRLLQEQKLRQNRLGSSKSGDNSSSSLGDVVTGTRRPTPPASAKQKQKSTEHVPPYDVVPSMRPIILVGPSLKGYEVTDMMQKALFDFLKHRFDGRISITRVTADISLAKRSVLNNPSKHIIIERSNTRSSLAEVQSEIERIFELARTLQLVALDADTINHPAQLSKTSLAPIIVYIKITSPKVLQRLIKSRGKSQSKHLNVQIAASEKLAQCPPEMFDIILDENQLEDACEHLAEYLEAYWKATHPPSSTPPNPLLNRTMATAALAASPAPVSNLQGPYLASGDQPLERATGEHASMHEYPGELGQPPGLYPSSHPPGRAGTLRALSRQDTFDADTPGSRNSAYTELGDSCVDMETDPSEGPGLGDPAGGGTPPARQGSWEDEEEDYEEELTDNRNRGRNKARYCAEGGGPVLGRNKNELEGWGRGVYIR

A word on the IC50: it is the concentration at which inhibition is half-maximal. As to `CC(C)C[C@H](N)C(=O)NCCCC(c1ccc(F)cc1)c1ccc(F)cc1` [Example 7, (S)-2-Amino-4-methyl-pentanoic acid [4,4-bis-(4-fluoro-phenyl)-butyl]-amide monohydrochloride], the IC50 in test [1] (setting [3]) is 2400 nM. Besides, the responders at 30 mg/kg in test [2] (0.25 h, 15 min posttreatment) is 80%; in test [2] (0.75 h, 45 min posttreatment) it was 80%.

Turning to `CC(C)C[C@H](NCC1CCCCC1)C(=O)NCCCC(c1ccc(F)cc1)c1ccc(F)cc1` [Example 8, (S)-2-(Cyclohexylmethyl-amino)-4-methyl-pentanoic acid [4,4-bis-(4-fluoro-phenyl)-butyl]-amide monohydrochloride], the IC50 in test [1] (setting [3]) came out at 460 nM. In test [2] (0.25 h, 15 min posttreatment), the responders at 3 mg/kg is 0%, the responders at 10 mg/kg is 80% and the responders at 30 mg/kg is 100%. Further, in test [2] (0.75 h, 45 min posttreatment), the responders at 3 mg/kg was 0%, the responders at 10 mg/kg is 40% and the responders at 30 mg/kg is 100%.

For `CC(C)=CCN[C@@H](CC(C)C)C(=O)NCCCC(c1ccc(F)cc1)c1ccc(F)cc1` [Example 9, (S)-4-Methyl-2-(3-methyl-but-2-enylamino)-pentanoic acid [4,4-bis-(4-fluoro-phenyl)-butyl]-amide monohydrochloride], in test [1] (setting [3]), the IC50 amounted to 280 nM. For the same compound, in test [2] (0.25 h, 15 min posttreatment), the responders at 3 mg/kg is 60%, the responders at 10 mg/kg was 100% and the responders at 30 mg/kg was 100%. Further, in test [2] (0.75 h, 45 min posttreatment), the responders at 3 mg/kg was 0%, the responders at 10 mg/kg is 60% and the responders at 30 mg/kg was 100%.

With `CN[C@@H](CC(C)C)C(=O)NCCCC(c1ccc(F)cc1)c1ccc(F)cc1` [Example 12, (S)-4-Methyl-2-methylamino-pentanoic acid [4,4-bis-(4-fluoro-phenyl)-butyl]-amide monohydrochloride], the IC50 in test [1] (setting [3]) turned out to be 1430 nM. The responders at 30 mg/kg in test [2] (0.25 h, 15 min posttreatment) is 100%; in test [2] (0.75 h, 45 min posttreatment), 80%.

`CC(C)C[C@@H](C(=O)NCCCC(c1ccc(F)cc1)c1ccc(F)cc1)N(C)Cc1ccc(C(C)(C)C)cc1.Cl` [Example 14, (S)-2-[(4-tert-Butyl-benzyl)-methyl-amino]-4-methyl-pentanoic acid [4,4-bis-(4-fluoro-phenyl)-butyl]-amide monohydrochloride]: in test [1] (setting [3]), the IC50 was found to be 840 nM.

For the compound `CC(C)CCN(C)[C@@H](CC(C)C)C(=O)NCCCC(c1ccc(F)cc1)c1ccc(F)cc1` [Example 28, (S)-4-Methyl-2-[methyl-(3-methyl-butyl)-amino]-pentanoic acid [4,4-bis-(4-fluoro-phenyl)-butyl]-amide monohydrochloride], in test [1] (IMR-32, IMR-32 cells, at 1 μM, read-out: IMR32 % blockage at 1 μM), the inhibition at 1 µM stood at 92%. The inhibition at 10 µM in test [1] (IMR-32, IMR-32 cells, at 10 μM, read-out: IMR32 % blockage at 10 μM) turned out to be 97%. Moreover, the responders at 30 mg/kg in test [2] (0.25 h, 15 min posttreatment) is 80%; in test [2] (0.75 h, 45 min posttreatment), 100%.

For the compound `CC(C)C[C@H](NC(=O)N1CCCCCC1)C(=O)N1CCN(C(c2ccc(F)cc2)c2ccc(F)cc2)CC1` [Example 31, (S)-Azepane-1-carboxylic acid (1-{4-[bis-(4-fluoro-phenyl)-methyl]-piperazine-1-carbonyl}-3-methyl-butyl)-amide], in test [1] (setting [3]), the IC50 was 480 nM. The responders at 30 mg/kg is 0% in test [2] (0.25 h, 15 min posttreatment) and 0% in test [2] (0.75 h, 45 min posttreatment).

With `CC(C)[C@H](NC(=O)N1CCCCCC1)C(=O)N1CCN(C(c2ccc(F)cc2)c2ccc(F)cc2)CC1` [Example 33, (S)-Azepane-1-carboxylic acid (1-{4-[bis-(4-fluoro-phenyl)-methyl]-piperazine-1-carbonyl}-2-methyl-propyl)-amide], in test [1] (setting [3]), the IC50 was 850 nM. In addition, the responders at 30 mg/kg in test [2] (0.25 h, 15 min posttreatment) was 0%; in test [2] (0.75 h, 45 min posttreatment) it was 0%.

In the case of `CC(C)C[C@@H](CN1CCN(C(c2ccc(F)cc2)c2ccc(F)cc2)CC1)NC(=O)N1CCCCCC1` [Example 36, (S)-Azepane-1-carboxylic acid (1-{4-[bis-(4-fluoro-phenyl)-methyl]-piperazin-1-ylmethyl}-3-methyl-butyl)-amide], the IC50 in test [1] (setting [4]) was 500 nM.

Turning to `CC(C)C[C@@H](C(=O)N1CCN(C(c2ccc(F)cc2)c2ccc(F)cc2)CC1)N(C)C` [Example 39, (S)-1-{4-[Bis-(4-fluoro-phenyl)-methyl]-piperazin-1-yl}-2-dimethylamino-4-methyl-pentan-1-one dihydrochloride], the IC50 in test [1] (setting [4]) is 3500 nM.
